From patent US6716442B2, “Process and means for the eradication of fleas in the habitats of small mammals” (Merial, priority 1997, dated 2004)
Like-named read-outs stand apart in the source and are kept apart here.

Columns and labels:
[1] = test system: fleas (Ctenocephalides felis); experiment: Eradication of fleas in enclosures of infested dogs treated monthly with a spot-on solution; format: in vivo; conditions: group C, 10% fipronil cutaneous point solution on days 0, 28, 56, 84, weekly egg counts, body and comb counts over weeks 1-12, regularly reinfested
From the text: The test used dogs in good health.
The dogs were divided by groups of three dogs into enclosures of area approximately 4.80 m long (16 feet) and 1.5 m wide (5 feet) each containing a shelter and soil especially favourable to the development of the immature stages of the fleas (Ctenocephalides felis).
A total of 18 dogs, that is to say six enclosures, was allocated to the control group A.
A group C of six dogs (2 enclosures) preinfested in this way received the treatment according to the invention by application of a cutaneous point solution having a concentration of 10% of fipronil.
The doses of concentrated composition for local cutaneous application of fipronil were as follows:
The animals of group C were treated on day 0 and then every 28 days, that is to say the days 28, 56 and 84.

fleas [2] = experiment: Similar flea eradication test on cats; format: in vivo; conditions: same results as dogs
fleas [3] = conditions: dogs; concentrated solution for point application (spot on); cited from earlier work
fleas [4] = conditions: cats; concentrated solution for point application (spot on); cited from earlier work

In the case of `N#Cc1nn(-c2c(Cl)cc(C(F)(F)F)cc2Cl)c(N)c1[S+]([O-])C(F)(F)F` (stereo not shown) [fipronil, 1-[2,6-Cl2-4-CF3-phenyl]-3-CN-4-[SO—CF3]-5-NH2-pyrazole], the “rate of control of the infestation” value [1] is listed as 100%, the reinfestation (fleas [2]) is listed as “total absence of reinfestation” and the “period of anti-flea efficacy” value (fleas [3]) is listed as 2 to 3 months. The “period of anti-flea efficacy” value (fleas [4]) was “six”.
